From US20210299150A1, “AP39 IMPACT ON MITOCHONDRIA, METABOLISM, GENE TRANSCRIPTION REGULATION, CARDIOTOXICITY PROTECTION AND CANCER TREATMENT” (priority 2020, published 2021)

Key:
DIC in mouse models = assay: Dox-induced cardiotoxicity (DIC) in mouse models: heart weight, echocardiography, histology; assay type: in vivo
Description: AP39 treatment ameliorated DIC in mouse models in a dose dependent manner. DIC was induced by giving a single dose of Dox i.p. (FIG. 3A) as reported before^48. AP39 was given for six consecutive days starting with Dox treatment. two different doses of AP39 were tested.
AP39 ameliorated cardiac fibrosis in a dose dependent manner. […] It is possible that lower doses of AP39 might have induced favorable metabolic changes which are enough to improve heart function but not sufficient to protect from cardiac cell death after Dox. These findings needs to be confirmed in a larger study.

[1] = system: cleaved caspase 3 and PARP, phospho ERK1/2 and phospho p38; assay: Western blot of apoptotic markers and stress signaling in H9C2; assay type: cell-based, Rat; conditions: H9C2, AP39 with Dox vs Dox only
Description: AP39 treatment also ameliorated Dox toxicity in a model of Rat cardiomyoblast cell line, H9C2. […] There was a narrow window of protection, as 30 μM and 50 μm doses were not as strong as the 40 μM dose (FIGS. 5A and B) in conferring protection. […] Note that Dox caused an apoptotic phenotype in correlation with ROS levels (FIG. 5F, Dox lane). This in vitro AP39 protection is modest when compared to the in vivo scenario. This difference may be due to rapid clearance of toxic metabolites (for instance, higher lactate production, FIG. 10D) and better oxygen supply (AP39 stimulated OCR, FIG. 7C) in vivo and lack of such sophistication in vitro.

AMPK, Opa1 = assay: Western blot of AMPK activation and Opa1 isoforms; assay type: cell-based; conditions: after AP39 treatment
Description: AP39 enhanced AMPK activation and produced shorter isoform of Opa1, i.e. no longer isoform of Opa1. Note AMPK substrate ACC phosphorylation
Mitochondrial energy efficiency is regulated through accumulation of the shorter form of Opa1 after AP39 treatment. […] Thus, AP39 treatment led to mitochondrial fission, better quality control through increased mitophagy (increased AMPK activation) and energetic efficiency (short form of Opa1), which were all needed to eliminate Dox damaged mitochondria and to halt the functional decline. Apart from its role in mitophagy and quality control, AMPK activation also induces transcription of nuclear encoded mitochondrial resident proteins.

[2] = Oxygen Consumption Rate (OCR); assay type: cell-based; conditions: AP39, not significantly different in the presence of Dox
Description: AP39 enhanced AMPK activation (A and B) and produced shorter isoform of Opa1, i.e. no longer isoform of Opa1. Oxygen consumption rates (OCR) with different treatments. […] Note AMPK substrate ACC phosphorylation.
It is possible that AP39 relies mostly on increased energy efficiency rather than on improving OCR after Dox treatment.

[3] = system: Myc/Max-regulated transcripts; assay: RNAseq analysis in H9C2 cell line; assay type: cell-based, Rat
Description: The coverage among groups are indicated.
Next, to interrogate mechanisms of AP39 protection against DIC, RNAseq analysis was performed. There was sufficient coverage of the whole transcriptome among the groups (FIG. 8A).

hiPSC-CMs = assay: DIC in hiPSC-CMs (Annexin V, MitoSox Red); assay type: cell-based, human
MCF7 breast cancer cells = assay: Cell viability (MTT, crystal violet) of MCF7 breast cancer cells; assay type: cell-based
Description: Methods for cell viability: Cells were plated in 96 wells/6 wells cell culture plates. After 24 hrs of plating, the treatments (added in the growth medium) were conducted. The following assays were performed after 24 hrs of the treatments (day 2). (FIGS. 15A, 17-20, 24-27)
MTT assay methods. For the MTT assay, […] of 5 mg/ml MTT-tetrazolium salts in PBS was added to each well containing the growth medium. After 3 hours of incubation, the medium was removed and the formazan crystals were dissolved by adding DMSO. The absorption of the formazan solution was measured using a spectrophotometer at a wavelength of 570 nm. FIGS. 15B, 21-22.
Crystal Violet (CV) assay. For the CV Staining assay, cells were stained with 0.5% crystal violet in 30% ethanol for 10 minutes at room temperature after removal of the medium. The cells were lysed in a 1% SDS (sodium dodecyl sulfate) solution. The absorbance of the solution was measured using a spectrophotometer at a wavelength of 595 nm. FIG. 27.
MCF7 breast cancer cells were exposed to control, AP39 (AP) at 40 or 60 μM, Doxorubicin at 2.5 or 20 μM, thiolactate at 10 mM, AP39 and Doxorubicin, AP39 and thiolactate, or Doxorubicin and Thiolactate. […] FIGS. 26-27.

## O=C(CCCCCCCCC[P+](c1ccccc1)(c1ccccc1)c1ccccc1)Oc1ccc(-c2cc(=S)ss2)cc1.[Br-] [AP39]
DIC in mouse models; AP39 higher dose 0.642 mg/kg, six consecutive days, single dose of Dox i.p.
  heart weight decline seen during Dox treatment: effective in countering heart weight decline
DIC in mouse models; both doses of AP39, six consecutive days, single dose of Dox i.p.
  left ventricular dysfunction (echocardiography): effective in ameliorating left ventricular dysfunction
DIC in mouse models; higher AP39 dose
  Dox induced fibrosis and cell infiltration (histological sections): prevented Dox induced fibrosis and cell infiltration
DIC in mouse models; lower AP39 dose
  cardiac pathology (fibrosis, cell infiltration): not cardiac pathology
[1]
  PARP and caspase 3 cleavage: significantly reduced PARP and caspase 3 cleavage
  stress signaling (activated ERK1/2 and p38 kinases): reduced stress signaling
AMPK, Opa1
  AMPK activation: potent AMPK activation
  Opa1 isoforms (Opa1-S, Opa1-L): elevated amounts of the short form of Opa1 (Opa1-S) at the expense of long form (Opa1-L)
[2]
  Oxygen Consumption Rate (OCR): suppressed OCR
[3]; H9C2, AP39+Dox
  abnormal transcriptional changes induced after Dox treatment, global level (RNAseq): significantly reversed abnormal transcriptional changes
[3]; H9C2, AP39 with Dox
  Myc transcription: restored Myc transcription
hiPSC-CMs; 4 μM AP39 with 7.5 μM Dox, 48 hrs
  DIC in hiPSC-CMs: attenuated DIC
hiPSC-CMs; 40 μM AP39, compared with H9C2 cells
  tolerance of hiPSC-CMs to AP39: greater susceptibility
hiPSC-CMs; hiPSC-CMs, AP39 with Dox
  level of apoptosis (Annexin V) and mitochondrial ROS (MitoSox Red): attenuated with AP39 treatment
MCF7 breast cancer cells; AP39 40 or 60 μM, thiolactate 10 mM, 24 hrs
  cell killing, agent alone: able to kill breast cancer cells
MCF7 breast cancer cells; combination with Doxorubicin 2.5 μM
  potency of low doses of Doxorubicin: able to increase the potency of low doses of Doxorubicin
